Measured values reported in patent US8389527B2, “Substituted imidazopyridazines useful as kinase inhibitors” (Bristol-Myers Squibb Company, priority 2008, dated 2013).
pIC50: −log10 of the molar value.

How the values were obtained:
recombinant CK2A1 = biological target: T1, recombinant CK2A1 (Homo sapiens, UniProt P68400); assay: CK2 kinase assay (CK2A1), [γ-33P]ATP filter-binding; assay type: biochemical
T1 construct: purchased Invitrogen
Procedure: (§1) The effectiveness of compounds of the present invention as inhibitors of protein kinases can be readily tested by assays known to those skilled in the art. For example, in vitro protein kinase assays may be conducted with a relevant purified protein kinase and an appropriate synthetic substrate to determine the inhibitory activities of the compounds. […] Reaction mixtures were incubated at 30° C. for 1 h, and reaction products were captured by binding to phosphocellulose (P81) filter plates. Incorporation of radioactive phosphate into the peptide substrate was determined by liquid scintillation counting. The potency of compounds in inhibiting CK2 is expressed as IC50, defined as the concentrations of compounds required to inhibit the enzymatic activity by 50%.

recombinant CK2A2 = biological target: T2, recombinant CK2A2 (Homo sapiens, UniProt P19784); assay: CK2 kinase assay (CK2A2), [γ-33P]ATP filter-binding; assay type: biochemical
T2 construct: purchased Upstate Biotechnology
Procedure: as §1

HCT116 = assay: Cell proliferation inhibition assay (MTT, CellTiter96); assay type: cell-based; conditions: Homo sapiens, HCT-116; HCT116 cells, 72 h with compound, MTT readout
Procedure: B. Cell Proliferation Inhibition Assay
Compounds were evaluated for their ability to inhibit cell proliferation, using an assay that measures mitochondrial metabolic activity, that is directly correlated with cell numbers. Cells were plated at 2000 cells/well in 96-well plates and were cultured for 24 h in RPMI-1640 supplemented with 2% fetal bovine serum, before test compounds were added. Compounds were diluted in culture medium such that the final concentration of dimethyl sulfoxide never exceeded 1%. Following the addition of compounds, the cells were cultured for an additional 72 h before cell viability was determined by measuring the conversion of 3-(4,5-dimethylthiazol-2-yl)-2,5-diphenyltetrazolium bromide (MTT) dye using the CellTiter96 kit (Promega).

[1] = recombinant CK2A1 10 nM, ATP 25 μM, 10 μM peptide substrate, 30° C. 1 h
[2] = recombinant CK2A2 5 nM, ATP 5 μM, 10 μM peptide substrate, 30° C. 1 h
[3] = comparison examples of U.S. 2007/038314 (Table 2)

T2 sequence (P19784 whole entry): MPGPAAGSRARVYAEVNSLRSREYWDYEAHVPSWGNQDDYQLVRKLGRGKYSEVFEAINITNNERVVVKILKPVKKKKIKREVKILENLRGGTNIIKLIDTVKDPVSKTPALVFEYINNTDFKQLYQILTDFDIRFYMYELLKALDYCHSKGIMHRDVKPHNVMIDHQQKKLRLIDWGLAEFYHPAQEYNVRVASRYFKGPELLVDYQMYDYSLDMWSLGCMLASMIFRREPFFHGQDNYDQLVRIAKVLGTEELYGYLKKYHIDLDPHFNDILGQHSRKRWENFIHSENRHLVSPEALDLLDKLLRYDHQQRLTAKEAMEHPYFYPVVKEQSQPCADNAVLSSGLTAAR
T1 sequence (P68400 whole entry): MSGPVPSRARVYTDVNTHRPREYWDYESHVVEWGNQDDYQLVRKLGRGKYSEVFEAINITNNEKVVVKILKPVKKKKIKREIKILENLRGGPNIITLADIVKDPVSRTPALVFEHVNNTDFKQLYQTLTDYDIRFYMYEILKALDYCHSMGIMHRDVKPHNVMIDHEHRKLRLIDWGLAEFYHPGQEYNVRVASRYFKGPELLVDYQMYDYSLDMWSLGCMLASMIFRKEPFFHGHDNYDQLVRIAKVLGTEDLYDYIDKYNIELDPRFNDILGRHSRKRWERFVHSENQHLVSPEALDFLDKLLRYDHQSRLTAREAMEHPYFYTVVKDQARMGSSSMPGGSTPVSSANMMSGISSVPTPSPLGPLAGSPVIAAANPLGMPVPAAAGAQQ

SMILES | pIC50 (recombinant CK2A1; [1]) | pIC50 (recombinant CK2A2; [2]) | pIC50 (HCT116) | pIC50 (recombinant CK2A1; [3]) | pIC50 (recombinant CK2A2; [3])
CN[C@H](C)C(=O)N[C@H]1CC[C@H](Nc2cc(NC3CC3)c3ncc(C(=O)Nc4ccnc(Cl)c4)n3n2)CC1 (relative stereo) [Example 154, N-(2-chloro-4-pyridinyl)-8-(cyclopropylamino)-6-((trans-4-((N-methyl-D-alanyl)amino)cyclohexyl)amino)imidazo[1,2-b] pyridazine-3-carboxamide] | 7.41 | 9.70 | 6.68 |  | 
O=C(Nc1ccnc(Cl)c1)c1cnc2c(NC3CC3)cc(NC3CC[S+]([O-])CC3)nn12 (stereo not shown) [Example 572, 4-((3-((2-chloro-4-pyridinyl)carbamoyl)-8-(cyclopropylamino)imidazo[1,2-b]pyridazin-6-yl)amino)tetrahydro-2H-thiopyranium-1-olate] | 6.51 | 7.14 | 6.10 |  | 
N[C@H](Cc1cccnc1)C(=O)N[C@H]1CC[C@H](Nc2cc(NC3CC3)c3ncc(C(=O)Nc4ccnc(Cl)c4)n3n2)CC1 [Example 202, N-(2-chloro-4-pyridinyl)-8-(cyclopropylamino)-6-((trans-4-((3-(3-pyridinyl)-D-alanyl)amino)cyclohexyl)amino)imidazo [1,2-b]pyridazine-3-carboxamide] | 8.02 | 8.77 | 6.37 |  | 
N[C@@H](CO)C(=O)N[C@H]1CC[C@H](Nc2cc(NC3CC3)c3ncc(C(=O)Nc4ccnc(Cl)c4)n3n2)CC1 [Example 197, N-(2-chloro-4-pyridinyl)-8-(cyclopropylamino)-6-((trans-4-(L-serylamino)cyclohexyl)amino)imidazo [1,2-b]pyridazine-3-carboxamide] | 7.87 | 9.10 | 6.64 |  | 
C[C@@H](O)CC(=O)N[C@H]1CC[C@H](Nc2cc(NC3CC3)c3ncc(C(=O)Nc4ccnc(Cl)c4)n3n2)CC1 [Example 195, N-(2-chloro-4-pyridinyl)-8-(cyclopropylamino)-6-((trans-4-(((3R)-3-hydroxybutanoyl)amino)cyclohexyl)amino) imidazo[1,2-b]pyridazine-3-carboxamide] | 7.76 | 8.77 | 6.66 |  | 
N[C@H](Cc1cscn1)C(=O)N[C@H]1CC[C@H](Nc2cc(NC3CC3)c3ncc(C(=O)Nc4ccnc(Cl)c4)n3n2)CC1 (relative stereo) [Example 179, N-(2-chloro-4-pyridinyl)-8-(cyclopropylamino)-6-((trans-4-((3-(1,3-thiazol-4-yl)-D-alanyl)amino)cyclohexyl)amino)imidazo[1,2-b]pyridazine-3-carboxamide] | 7.86 | 9.15 | 6.04 |  | 
N#CCC(=O)N[C@H]1CC[C@H](Nc2cc(NC3CC3)c3ncc(C(=O)Nc4ccnc(F)c4)n3n2)CC1 [Example 138, 6-((trans-4-((cyanoacetyl)amino)cyclohexyl)amino)-8-(cyclopropylamino)-N-(2-fluoro-4-pyridinyl)imidazo [1,2-b]pyridazine-3-carboxamide] | 7.68 | 8.05 | 6.21 |  | 
N[C@H]1CC[C@H](Nc2cc(NC3CC3)c3ncc(C(=O)Nc4ccncc4F)n3n2)CC1 [Example 468, 6-((trans-4-aminocyclohexyl)amino)-8-(cyclopropylamino)-N-(3-fluoro-4-pyridinyl)imidazo [1,2-b]pyridazine-3-carboxamide] | 8.15 | 8.52 | 7.05 |  | 
N[C@@H](C(=O)N[C@H]1CC[C@H](Nc2cc(NC3CC3)c3ncc(C(=O)Nc4ccnc(Cl)c4)n3n2)CC1)c1ccccc1 [Example 172, 6-((trans-4-(((2R)-2-amino-2-phenylacetyl)amino)cyclohexyl)amino)-N-(2-chloro-4-pyridinyl)-8-(cyclopropylamino)imidazo [1,2-b]pyridazine-3-carboxamide] | 7.43 | 9.05 | 6.44 |  | 
N[C@H]1CC[C@H](Nc2cc(Nc3cccc(N4CCNCC4)n3)c3ncc(C(=O)Nc4ccncc4F)n3n2)CC1 [Example 481, 6-((trans-4-aminocyclohexyl)amino)-N-(3-fluoro-4-pyridinyl)-8-((6-(1-piperazinyl)-2-pyridinyl)amino)imidazo [1,2-b]pyridazine-3-carboxamide] | 6.92 | 7.47 | < 5.60 |  | 
O=C(Nc1ccncc1F)c1cnc2c(NC3CC3)cc(N[C@H]3CC[C@H](NC(=O)[C@H]4CCCN4)CC3)nn12 [Example 104, 8-(cyclopropylamino)-N-(3-fluoro-4-pyridinyl)-6-((trans-4-(D-prolylamino)cyclohexyl)amino)imidazo[1,2-b]pyridazine-3-carboxamide] | 7.42 | 8.00 | 6.70 |  | 
CCN(C)C(=O)N[C@H]1CC[C@H](Nc2cc(NC3CC3)c3ncc(C(=O)Nc4ccnc(Cl)c4)n3n2)CC1 [Example 278, N-(2-chloro-4-pyridinyl)-8-(cyclopropylamino)-6-((trans-4-((ethyl(methyl)carbamoyl)amino)cyclohexyl)amino)imidazo[1,2-b]pyridazine-3-carboxamide] | 7.20 | 8.82 | 6.30 |  | 
C[C@@H](N)C(=O)N[C@H]1CC[C@H](Nc2cc(Nc3ccccn3)c3ncc(C(=O)Nc4ccncc4F)n3n2)CC1 [Example 6, 6-((trans-4-(D-alanylamino)cyclohexyl)amino)-N-(3-fluoro-4-pyridinyl)-8-(2-pyridinylamino)imidazo[1,2-b]pyridazine-3-carboxamide] | 7.96 | 8.52 | 7.05 |  | 
N[C@H]1CC[C@H](Nc2cc(NC3CC3)c3ncc(C(=O)Nc4ccnc(F)c4)n3n2)CC1 [Example 25C, 6-((trans)-4-aminocyclohexylamino)-8-(cyclopropylamino)-N-(2-fluoropyridin-4-yl)imidazo[1,2-b]pyridazine-3-carboxamide] | 7.07 | 7.96 | 6.77 |  | 
N[C@H]1CC[C@H](Nc2cc(Nc3ccc(CN4CCOCC4)cc3)c3ncc(C(=O)Nc4ccncc4)n3n2)CC1 [Example 414, 6-((trans-4-aminocyclohexyl)amino)-8-((4-(4-morpholinylmethyl)phenyl)amino)-N-4-pyridinylimidazo[1,2-b]pyridazine-3-carboxamide] | 6.94 | 7.33 | 6.27 |  | 
N[C@H]1CC[C@H](Nc2cc(Nc3ccccc3)c3nccn3n2)CC1 [I(7), reference compound] |  |  |  | < 4.30 | < 4.30
COC(=O)CN[C@H]1CC[C@H](Nc2cc(NC3CC3)c3ncc(C(=O)Nc4ccncc4F)n3n2)CC1 [Example 523, methyl N-(trans-4-((8-(cyclopropylamino)-3-((3-fluoro-4-pyridinyl)carbamoyl)imidazo[1,2-b]pyridazin-6-yl)amino)cyclohexyl)glycinate] | 7.24 |  | 6.41 |  | 
CCOc1ccc(Nc2cc(N[C@H]3CC[C@H](N)CC3)nn3ccnc23)cc1 [I(1), reference compound] |  |  |  | < 4.30 | 4.99
Cc1ccc(Nc2cc(N[C@H]3CC[C@H](N)CC3)nn3ccnc23)nc1 [II(16), reference compound] |  |  |  | < 4.30 | 
